Source: US8791132B2, “Compounds and methods for treatment of hypertension” (Medivation Technologies, Inc., priority 2011, dated 2014)
Where “and” joins values, the source holds several entries; their conditions need not be identical. Equal entries are not always repeated. Where two headings read alike, the source gives them in different places.

What was measured:
[1] = target: T1, human recombinant adrenergic α2A receptor (Homo sapiens, UniProt P08913); test: Radioligand binding, adrenergic α2A ([3H]MK-912); conditions: for Percentage inhibition of ligand binding, Adrenergic α2A / Percentage inhibition of ligand binding, Adrenergic α2A (0.1 μM): 0.1 µM
T1 construct: expressed in transfected cells; host or cells: insect Sf9 cells
T1 sequence (P08913 1-465): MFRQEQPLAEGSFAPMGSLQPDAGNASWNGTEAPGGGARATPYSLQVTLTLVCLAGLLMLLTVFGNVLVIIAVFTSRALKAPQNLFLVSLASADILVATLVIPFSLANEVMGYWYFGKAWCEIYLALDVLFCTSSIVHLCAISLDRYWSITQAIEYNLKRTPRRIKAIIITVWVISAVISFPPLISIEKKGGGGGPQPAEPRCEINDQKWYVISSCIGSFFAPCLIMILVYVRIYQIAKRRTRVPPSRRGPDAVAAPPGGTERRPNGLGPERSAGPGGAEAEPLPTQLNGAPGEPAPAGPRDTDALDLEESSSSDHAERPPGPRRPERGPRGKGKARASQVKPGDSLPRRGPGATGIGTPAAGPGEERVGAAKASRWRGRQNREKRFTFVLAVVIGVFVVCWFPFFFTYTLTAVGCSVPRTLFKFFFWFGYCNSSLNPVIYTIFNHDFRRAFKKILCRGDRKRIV
In short: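 Receptor expressed in Sf9 cells, in 50 mM Tris-HCl pH 7.4, 12.5 mM MgCl2, 2 mM EDTA; compounds incubated with 1 nM [3H]MK-912 for 60 min at 25 °C.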

SH-SY5Y cells = test: Cell death (LDH release) in hydrogen peroxide-treated SH-SY5Y cells; type: cell-based; conditions: LDH release normalized to vehicle (=100); hydrogen peroxide 300 μM, 24 h; compounds at 10 nM
Procedure: SH-SY5Y cells cultured in DMEM/F12 media supplemented with 10% FBS were seeded in 96-well microplates at 150,000 cells/cm^2. After 24 h, cells were depleted from FBS and kept in culture for 24 h before the experiment. Cells were then treated with 4-Br-A23187 (2 μM), hydrogen peroxide (300 μM) or the mitochondrial toxin rotenone (25 μM) in the presence of vehicle or Compound of the Invention for 24 h. Cell death was determined by measurements of LDH release according to the Cytotoxicity Detection KitPlus (Roche, Mannheim, Germany). Cell viability was determined by measuring the capacity of cells to metabolize MTS tetrazolium (MTS) according to the Cytotoxicity Detection KitPlus (Roche, Mannheim, Germany) and MTS reduction is assessed by the CellTiter 96® AQueous One Solution Cell Proliferation assay (Promega Corporation, Madison, Wis., USA). Compounds were screened at 10 nM, using DMSO as vehicle. Assay results for the experiments with hydrogen peroxide are presented as the LDH release (cell death) of untreated cells (control), hydrogen peroxide-treated cells (vehicle), and co-incubation of hydrogen peroxide with Compounds of the Invention treated cells normalized to the vehicle (FIG. 17A). This assay assesses the ability of the test compounds to protect against cell death that is mediated by mitochondrial dysfunction. In the assay, the calcium ionophore 4-Br-A23187 is used to challenge the cells, causing calcium levels to rise in mitochondria, which leads to depolarization and cell death. Test compounds are assessed for their ability to prevent cell death in response to challenge with 4-Br-A23187.

[2] = system: spontaneously hypertensive rats (SHR); test: Blood pressure in spontaneously hypertensive rat (SHR) model of hypertension; type: in vivo; conditions: for systolic blood pressure lowering effects: escalating doses 1, 3, 10 and 30 mg/kg/iv for every 30 minutes (FIGS. 20-22)
Procedure: Male spontaneously hypertensive rats (SHR), approximately 3 months of age and weighting approximately 250 grams were utilized. Free access to standard lab chow for rats and reverse osmosis (RO) water was granted. All aspects of this work, including housing, experimentation and disposal of animals were performed in general accordance with the Guide for the Care and Use of Laboratory Animals (National Academy Press, Washington, D.C., 1996).
The animals were anaesthetized with sodium pentobarbital (50 mg/kg IP). The left carotid artery when compound dosed orally (PO) or subcutaneously (SC); and both left carotid and femoral artery when compound dosed intravenous (i.v.) were cannulated with a polyethylene catheter (38 cm in length; PE60, Portex, Ltd.) connected with a polyurethane tubing (12 cm in length; PU-40, Cat. #BB520-40, Scientific Commodities, Inc.), which was tunneled under the skin and exited through the nape of the neck. The arterial cannula was connected to a pressure transducer through a swivel system, allowing free roaming during continuous recording of mean arterial pressure and heart rate. The animals were housed individually with food and water freely available during recovery. On the following day, the arterial cannula was connected via a Statham (P 23×L) pressure transducer to a NEC/San-Ei amplifier and data acquisition and analysis system (Power Lab 8/SP) for direct mean arterial pressure and heart rate measurements.
The test compounds, dissolved in sterile saline, were administered subcutaneously (SC) or orally (PO), or by intravenous (i.v.) bolus administration in two minutes or the escalating doses of compound administration in every 30 minutes, with each dose and its strength delivered over 2 minutes as shown in the respective figures; the internal standard phentolamine was given by oral gavage. The control group received vehicle alone. Immediately before (−10 min and −5 min) and at 15 min, 30 min, 1 hr, 1.5 hr, 2 hr, 2.5 hr, 3 hr, 3.5 hr, and 4 hr post-dosing, systolic pressure blood pressure values were recorded.

[3] = compound at 0.03 μM, [3H]MK-912, repeat assays, each datapoint shown, read-out: Percentage inhibition of ligand binding, Adrenergic α2A
[4] = compound at 0.1 μM, [3H]MK-912, repeat assays, each datapoint shown
[5] = SC or PO, 4 hour study period (FIGS. 7-10)
[6] = compound at 0.1 μM, [3H]MK-912, repeat assays, each datapoint shown, read-out: Percentage inhibition of ligand binding, Adrenergic α2A
[7] = compound at 0.1 μM, [3H]MK-912, repeat datapoints each shown

Compound | Ki [1] | inhibition at 0.03 µM [1, 3] [%] | Percentage inhibition of ligand binding, Adrenergic α2A [1, 4] | LDH release (cell death), relative to vehicle (SH-SY5Y cells) | systolic blood pressure [2, 5] | also measured
Cc1ccc2c(c1)c1c(n2CC(O)c2ccncc2)CCN(C)C1 (single isomer, unassigned) [3b] | 139 nM and 166 nM and 222 nM | 1 | 21% and 22% and 23% and 25% | 86.70 | lowered systolic blood pressure | –
CN1CCc2c(c3cc(Cl)ccc3n2CC(O)c2ccncc2)C1 (single isomer, unassigned) [4a] | 176 nM | 5 | 24% | 81.64 | – | inhibition at 0.1 µM [1, 6]: 19%
Cc1ccc2c(c1)c1c(n2CC(C)(O)c2cccnc2)CCN(C)C1 (single isomer, unassigned) [5b, 1-(1,2,3,4-tetrahydro-2,8-dimethylpyrido[4,3-b]indol-5-yl)-2-(pyridin-3-yl)propan-2-ol] | 152 nM and 192 nM and 195 nM | – | 18% and 21% and 22% | 73.73 | – | –
Cc1ccc2c(c1)c1c(n2CC(O)c2ccncc2)CCN(C)CC1 (single isomer, unassigned) [13b, 2-(3,9-dimethyl-2,3,4,5-tetrahydroazepino[4,5-b]indol-6(1H)-yl)-1-(pyridin-4-yl)ethanol] | 199 nM | – | – | – | lowered systolic blood pressure | –
Cc1cnc2c(c1)c1c(n2CC(C)(O)c2cccnc2)CCN2CCCC12 (single isomer, unassigned) [26a] | 113 nM | 14 | 23% and 33% | – | – | systolic blood pressure lowering effects [2]: robust
Cc1ccc2c(c1)c1c(n2CC(N)c2ccncc2)CCN(C)C1 (single isomer, unassigned) [27a, 2-(1,2,3,4-tetrahydro-2,8-dimethylpyrido[4,3-b]indol-5-yl)-1-(pyridin-4-yl)ethanamine] | 1100 nM | – | 2% and 11% | – | – | systolic blood pressure lowering effects [2]: robust; heart rate ([2]; when systolic blood pressure falls (data not shown)): neutral effect on heart rate
Cc1ccc2c(c1)c1c(n2CC(O)c2ccncc2)CCNC1 (single isomer, unassigned) [39a, 2-(8-methyl-1,2,3,4-tetrahydro-pyrido[4,3-b]indol-5-yl)-1-pyridin-4-yl-ethanol] | 1660 nM | 5 | 15% | 82.94 | – | inhibition at 0.1 µM [1, 6]: 13%
CN1CCc2c(n(CC(O)c3ccncc3)c3ccc(Cl)cc23)C1 (single isomer, unassigned) [41a] | – | – | −9% | – | markedly lowered blood pressure | –
Cc1ccc2c(c1)c1c(n2CC(O)c2ccncc2)CCN2CCCC12 (single isomer, unassigned) [129d] | 1.87 nM | – | – | – | – | Percentage inhibition of ligand binding, Adrenergic α2A (0.03 μM) ([1]; compound at 0.03 μM, [3H]MK-912, repeat datapoints each shown, 0.03 µM): 87%; heart rate ([2]; oral or iv bolus or i.v. escalating doses): tachycardia; effects on systolic blood pressure ([2]; oral or iv bolus or i.v. escalating doses (FIGS. 23-25)): robust
Cc1ccc2c(c1)c1c(n2CC(O)c2ccc(C(N)=O)nc2)CCN(C)C1 (single isomer, unassigned) [144b, 5-[2-(2,8-dimethyl-1,2,3,4-tetrahydro-pyrido[4,3-b]indol-5-yl)-1-hydroxy-ethyl]-pyridine-2-carboxylic acid amide] | – | – | – | – | – | Percentage inhibition of ligand binding, Adrenergic α2A (0.1 μM) [1, 7]: 4%; inhibition at 0.1 µM ([1]; read-out: Percentage inhibition of ligand binding, Adrenergic α2A (0.1 μM), compound at 0.1 μM, [3H]MK-912, repeat datapoints each shown): 3%; systolic blood pressure ([2]; i.v. bolus in 2 minutes (FIG. 19)): marked reduction in systolic blood pressure
Cc1ccc2c(c1)c1c(n2CC(C)(O)c2cnccn2)CCN2CCCC12 (single isomer, unassigned) [176a] | – | – | – | – | – | Percentage inhibition of ligand binding, Adrenergic α2A (0.1 μM) [1, 7]: 32%; systolic blood pressure lowering effects [2]: robust
Cc1ccc2c(c1)c1c(n2CC(O)c2ccncc2)CCN(C)C1 (stereo not drawn) [compound 3] | 0.26 nM | 4 | – | – | dose-dependent reduction in systolic blood pressure | –
